Measurements: PMC11314561, “Design and Synthesis of Novel Aminoindazole-pyrrolo[2,3-b]pyridine Inhibitors of IKKα That Selectively Perturb Cellular Non-Canonical NF-κB Signalling” (Molecules, 2024)

Experiments:
Assay in all cases: kinase panel
Format in all cases: biochemical
CDK1/cyclinB(h) = CDK1/cyclinB(h) (Homo sapiens, UniProt P06493)
Procedure, shortened: (§1)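 % inhibition read-out; kinome panel of 231 kinases; one analogue run on a selected 98-kinase subset only.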

Haspin(h) = molecular target: T1, Haspin(h) (Homo sapiens, UniProt Q8TF76)
T1 sequence (Q8TF76 1-798): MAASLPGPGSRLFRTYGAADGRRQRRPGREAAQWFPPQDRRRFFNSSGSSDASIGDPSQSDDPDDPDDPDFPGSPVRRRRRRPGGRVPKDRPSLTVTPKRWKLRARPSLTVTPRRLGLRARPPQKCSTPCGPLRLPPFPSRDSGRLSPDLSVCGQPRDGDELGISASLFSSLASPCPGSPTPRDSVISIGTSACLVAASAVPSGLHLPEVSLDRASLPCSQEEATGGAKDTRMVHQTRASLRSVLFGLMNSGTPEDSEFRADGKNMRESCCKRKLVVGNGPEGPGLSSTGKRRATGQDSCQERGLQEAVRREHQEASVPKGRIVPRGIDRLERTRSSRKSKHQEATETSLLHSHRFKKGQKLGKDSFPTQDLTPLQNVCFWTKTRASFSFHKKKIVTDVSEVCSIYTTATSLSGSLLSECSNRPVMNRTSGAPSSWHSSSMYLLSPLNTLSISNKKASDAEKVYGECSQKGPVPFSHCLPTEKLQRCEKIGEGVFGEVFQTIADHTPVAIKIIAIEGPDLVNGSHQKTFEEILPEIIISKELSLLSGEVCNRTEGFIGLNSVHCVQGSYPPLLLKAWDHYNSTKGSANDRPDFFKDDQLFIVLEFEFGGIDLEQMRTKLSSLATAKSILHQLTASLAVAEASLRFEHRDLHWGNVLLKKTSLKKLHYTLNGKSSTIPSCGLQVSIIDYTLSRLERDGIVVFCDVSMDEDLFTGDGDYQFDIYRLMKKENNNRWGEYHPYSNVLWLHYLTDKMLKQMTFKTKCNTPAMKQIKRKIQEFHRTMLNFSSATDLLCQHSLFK
Procedure, shortened: as §1

PAK2(h) = PAK2(h) (Homo sapiens, UniProt Q13177)
Procedure, shortened: as §1

TAK1(h) = molecular target: T2, TAK1(h) (Homo sapiens, UniProt O43318)
T2 sequence (O43318 1-303 limits assumed): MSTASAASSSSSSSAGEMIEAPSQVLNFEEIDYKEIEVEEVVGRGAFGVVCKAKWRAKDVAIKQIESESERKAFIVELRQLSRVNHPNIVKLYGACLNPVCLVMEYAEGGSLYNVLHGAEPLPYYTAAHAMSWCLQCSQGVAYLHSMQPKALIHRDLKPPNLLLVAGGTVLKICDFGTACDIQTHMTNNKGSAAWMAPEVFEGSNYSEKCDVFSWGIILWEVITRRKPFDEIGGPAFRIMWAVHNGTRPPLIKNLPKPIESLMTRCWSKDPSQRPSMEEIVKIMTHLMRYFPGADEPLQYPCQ
Procedure, shortened: as §1

CaMKI(h) = CaMKI(h) (Homo sapiens, UniProt Q14012)
Procedure, shortened: as §1

EphA1(h) = molecular target: T3, EphA1(h) (Homo sapiens, UniProt P21709)
T3 sequence (P21709 26-976): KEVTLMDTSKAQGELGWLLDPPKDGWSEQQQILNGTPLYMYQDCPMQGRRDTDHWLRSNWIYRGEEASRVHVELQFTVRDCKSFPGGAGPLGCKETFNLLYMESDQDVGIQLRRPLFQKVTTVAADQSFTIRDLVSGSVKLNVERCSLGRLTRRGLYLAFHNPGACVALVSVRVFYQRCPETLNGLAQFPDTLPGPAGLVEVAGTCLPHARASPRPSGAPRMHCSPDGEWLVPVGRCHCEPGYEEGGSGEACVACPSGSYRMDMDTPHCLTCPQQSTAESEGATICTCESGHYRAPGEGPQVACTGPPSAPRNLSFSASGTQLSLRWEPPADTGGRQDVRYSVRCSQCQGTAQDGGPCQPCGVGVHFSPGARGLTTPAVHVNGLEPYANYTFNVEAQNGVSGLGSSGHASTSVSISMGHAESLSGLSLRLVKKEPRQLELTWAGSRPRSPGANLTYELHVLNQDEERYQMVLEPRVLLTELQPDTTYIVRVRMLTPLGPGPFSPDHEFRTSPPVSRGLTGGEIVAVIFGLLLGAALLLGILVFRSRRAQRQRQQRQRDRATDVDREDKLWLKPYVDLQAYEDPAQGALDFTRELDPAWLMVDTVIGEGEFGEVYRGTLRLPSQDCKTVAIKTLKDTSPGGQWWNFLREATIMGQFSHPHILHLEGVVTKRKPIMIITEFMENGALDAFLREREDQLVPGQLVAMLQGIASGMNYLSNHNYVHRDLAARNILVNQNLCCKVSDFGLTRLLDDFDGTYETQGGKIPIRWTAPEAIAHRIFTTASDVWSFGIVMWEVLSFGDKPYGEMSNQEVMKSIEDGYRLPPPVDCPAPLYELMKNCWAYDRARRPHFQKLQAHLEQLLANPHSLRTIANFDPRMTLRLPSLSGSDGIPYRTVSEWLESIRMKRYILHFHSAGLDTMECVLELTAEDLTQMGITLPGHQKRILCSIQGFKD
Procedure, shortened: as §1

PAR-1Bα(h) = PAR-1Bα(h) (Homo sapiens, UniProt Q7KZI7)
Procedure, shortened: as §1

Sequence of CaMKI(h) (Q14012 whole entry): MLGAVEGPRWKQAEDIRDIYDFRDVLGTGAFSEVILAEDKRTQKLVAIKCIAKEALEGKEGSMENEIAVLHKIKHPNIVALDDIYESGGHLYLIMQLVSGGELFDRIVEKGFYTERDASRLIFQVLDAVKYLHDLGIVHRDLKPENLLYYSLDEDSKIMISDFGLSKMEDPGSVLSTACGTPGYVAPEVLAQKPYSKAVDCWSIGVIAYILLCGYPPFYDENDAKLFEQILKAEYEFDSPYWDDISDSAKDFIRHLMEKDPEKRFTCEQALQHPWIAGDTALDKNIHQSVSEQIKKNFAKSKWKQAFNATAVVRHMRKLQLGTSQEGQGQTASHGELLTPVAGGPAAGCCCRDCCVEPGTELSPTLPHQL
Sequence of PAR-1Bα(h) (Q7KZI7 whole entry): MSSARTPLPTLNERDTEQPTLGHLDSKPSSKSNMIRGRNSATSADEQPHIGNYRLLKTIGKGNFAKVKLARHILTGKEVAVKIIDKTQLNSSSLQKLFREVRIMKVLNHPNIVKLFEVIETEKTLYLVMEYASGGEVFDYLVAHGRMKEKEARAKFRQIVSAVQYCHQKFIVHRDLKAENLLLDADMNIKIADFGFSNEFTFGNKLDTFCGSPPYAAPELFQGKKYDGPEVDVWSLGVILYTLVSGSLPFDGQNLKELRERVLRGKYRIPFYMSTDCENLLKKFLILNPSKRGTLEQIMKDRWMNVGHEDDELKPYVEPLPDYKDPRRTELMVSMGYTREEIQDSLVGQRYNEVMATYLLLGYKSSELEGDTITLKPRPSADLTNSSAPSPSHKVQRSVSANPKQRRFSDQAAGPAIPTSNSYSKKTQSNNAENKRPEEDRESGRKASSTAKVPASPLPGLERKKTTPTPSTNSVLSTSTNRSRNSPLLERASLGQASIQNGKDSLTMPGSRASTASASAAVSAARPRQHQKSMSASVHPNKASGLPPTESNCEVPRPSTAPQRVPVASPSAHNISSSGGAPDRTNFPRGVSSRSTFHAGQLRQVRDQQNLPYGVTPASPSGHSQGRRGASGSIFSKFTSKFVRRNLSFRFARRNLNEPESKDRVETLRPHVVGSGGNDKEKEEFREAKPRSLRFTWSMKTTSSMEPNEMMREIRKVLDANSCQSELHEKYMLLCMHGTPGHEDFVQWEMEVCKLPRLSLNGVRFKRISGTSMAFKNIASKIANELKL
Sequence of CDK1/cyclinB(h) (P06493 whole entry): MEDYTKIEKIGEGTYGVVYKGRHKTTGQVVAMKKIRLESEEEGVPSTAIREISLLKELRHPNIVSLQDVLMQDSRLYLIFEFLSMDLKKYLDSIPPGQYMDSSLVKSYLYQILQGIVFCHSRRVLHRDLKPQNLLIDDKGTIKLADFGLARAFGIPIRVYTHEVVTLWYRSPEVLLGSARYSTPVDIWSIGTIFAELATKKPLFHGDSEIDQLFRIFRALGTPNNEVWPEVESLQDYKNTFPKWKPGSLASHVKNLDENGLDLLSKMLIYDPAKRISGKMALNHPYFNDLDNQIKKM
Sequence of CDK1/cyclinB(h) (P14635 whole entry partner): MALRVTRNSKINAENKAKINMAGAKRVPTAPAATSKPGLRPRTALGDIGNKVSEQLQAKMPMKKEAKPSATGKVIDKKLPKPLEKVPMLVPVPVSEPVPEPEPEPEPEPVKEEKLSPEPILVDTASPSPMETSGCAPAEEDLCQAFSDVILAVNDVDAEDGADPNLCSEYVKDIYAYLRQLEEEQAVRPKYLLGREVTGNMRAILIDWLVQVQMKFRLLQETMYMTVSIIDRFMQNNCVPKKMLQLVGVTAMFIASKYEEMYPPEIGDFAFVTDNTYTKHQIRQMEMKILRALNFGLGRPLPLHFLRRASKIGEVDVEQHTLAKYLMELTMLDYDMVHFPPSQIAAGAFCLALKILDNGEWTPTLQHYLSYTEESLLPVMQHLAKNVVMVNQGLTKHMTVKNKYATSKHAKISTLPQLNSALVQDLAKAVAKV
Sequence of PAK2(h) (Q13177 whole entry): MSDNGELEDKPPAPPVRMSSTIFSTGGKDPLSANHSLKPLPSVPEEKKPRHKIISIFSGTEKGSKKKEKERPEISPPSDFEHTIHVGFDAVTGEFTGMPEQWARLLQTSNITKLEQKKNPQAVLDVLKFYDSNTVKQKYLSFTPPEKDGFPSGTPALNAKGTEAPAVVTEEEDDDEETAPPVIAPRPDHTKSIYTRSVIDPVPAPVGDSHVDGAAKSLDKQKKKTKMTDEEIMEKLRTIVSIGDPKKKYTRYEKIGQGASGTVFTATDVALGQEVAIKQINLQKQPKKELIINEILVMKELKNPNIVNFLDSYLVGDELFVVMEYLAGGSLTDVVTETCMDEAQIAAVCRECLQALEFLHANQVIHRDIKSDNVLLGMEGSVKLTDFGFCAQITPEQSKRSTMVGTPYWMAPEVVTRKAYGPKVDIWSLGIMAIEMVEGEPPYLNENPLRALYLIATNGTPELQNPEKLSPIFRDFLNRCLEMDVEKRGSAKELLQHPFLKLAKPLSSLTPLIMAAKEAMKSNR

Row | inhibition at 1 µM (CDK1/cyclinB(h)) | inhibition at 1 µM (Haspin(h)) | inhibition at 1 µM (PAK2(h)) | inhibition at 1 µM (TAK1(h)) | inhibition at 1 µM (CaMKI(h)) | inhibition at 1 µM (EphA1(h)) | inhibition at 1 µM (PAR-1Bα(h)) | Structure (SMILES)
1 | 77% | 94% | 1% | 6% | -6% | 24% | 29% | Nc1n[nH]c2ccc(-c3ccnc4[nH]c(-c5cccc(OCc6ccccc6)c5)cc34)cc12 [Compound 5r [SU1261]]
2 | 58% | 92% | 0% | 0% | 1% | -7% | 20% | Nc1n[nH]c2ccc(-c3ccnc4[nH]c(-c5ccnc(OCc6ccccc6)c5)cc34)cc12 [Compound 6g [SU1349]]
3 | 101% | 101% | 18% | 28% | 9% | 87% | 86% | Nc1n[nH]c2ccc(-c3ccnc4[nH]c(-c5ccccc5)cc34)cc12 [Compound 4]
